Experimental data from patent US20250268971A1, “SAFFRON AS ANTI-INFLAMMATORY AGENT IN TREATING INFLAMMATORY BOWEL DISEASE” (HOWARD UNIVERSITY, priority 2020, published 2025).

Tested on: human PBMCs T cells
Assay: Human PBMCs T cells pro-inflammatory cytokine secretion (flow cytometry)
Assay type: cell-based
Protocol: A 48 well plate was coated with human anti-CD3 antibody (1 μg/ml) overnight. After washing with 1×PBS, plates were coated with human PBMCs (0.5×10^6 cells/well), human anti-CD28 (1 μg/ml), β-mercaptoethanol (1 μg/ml), different concentrations of Saffron aqueous extract (250 μg/ml, 500 μg/ml) and other constituents of saffron, Safranal (500 μM, 1 mM) (Sigma Aldrich, USA). The human PBMCS of 0.5×10^6 cells/well PBMCs were seeded in 48 well microplates in RPMI-1640 (Sigma, USA) supplemented with 10% fetal bovine serum and 1% penicillin/streptomycin at 37° C. and in 5% CO2) (day 0). At day 3, cells were stimulated with phorbol myristate acetate (PMA; 50 ng/ml)+ Ionomycin (1 μg/ml)+ Brefeldin A (1X) for 4 hrs. and cells were harvested and stained for flow cytometry. The human specific antibodies for T cells (dye; Zombi Aqua, CD45 PerCP 5.5, CD3 BV421, CD4 PETR, CD127-PECy7, CD25 BV605, CD8a AF488 and pro-inflammatory cytokines, like TNF-α AF700, IFNg APC, IL4 PE) were used to stain the PBMC cells.
In CD8+ T cells, TNFα+ expression was reduced in presence of SFE dose 500 μg/ml and safranal doses (500 μM, 1 mM) only, while IFNg+ expression was reduced in all tested doses of SFE and safranal in comparison to stimulated human PBMCs treated with media.

SMILES: CC1=C(C=O)C(C)(C)CC=C1 [safranal, Safranal]
- TNFα+ expression in CD8+ T cells (SFE 500 μg/ml only, safranal 500 μM, 1 mM, vs media treated stimulated PBMC): reduced
- TNFα+ in CD4+ T cells (SFE 250 and 500 μg/ml, safranal 500 μM, 1 mM, anti-CD3/CD28, PMA+ionomycin stimulated, vs media): inhibitory response
- IFNg+ in CD4+ T cells (SFE 250 and 500 μg/ml, safranal 500 μM, 1 mM, vs media treated stimulated PBMC): inhibitory response
- IFNg+ expression in CD8+ T cells (all tested doses (SFE 250, 500 μg/ml; safranal 500 μM, 1 mM), vs media): reduced
